Source: patent US5234942A, “Heterocyclic amides and leucotriene antagonistic use thereof” (ICI Americas Inc., priority 1984, dated 1993)

System: leukotrienes
Test: leukotriene antagonist properties (test not specified; standard tests)
Conditions: in words
Method: Using this procedure, tracheal tissue strips are set up in groups of eight, four being used as time/vehicle controls and four for each test compound. All of the strips are exposed to 8×10^-9 M leukotriene E4 (LTE4) following the 50 minute equilibration period, and the response recorded. This concentration of LTE4 is that which produces a contraction equal to about 70-80% of the maximal effect of the agonist in this tissue. The LTE4 is washed out for 40-45 minutes and the procedure repeated twice to ensure that reproducible responses are being obtained with LTE4. Leukotriene C4 (LTC4) or D4 (LTD4), at a concentration of 8×10^-9 M, may be substituted for LTE4 in the same procedure.
Once tissue reproducibility has been established, test compounds are added to four baths following the 40 to 45 minute washout period. After a 10 minute incubation with test compound or vehicle, 8×10^-9 M LTE4, LTD4 or LTC4 is added and the response recorded. The percentage inhibition by the test compound or the percentage change in vehicle controls is calculated, for each tissue, according to the following equation: % inhibition=100 multiplied by (mg. tension increase of preceding response minus mg. tension increase in presence of compound) […]) divided by mg. tension increase of preceding response. The mean percentage change for vehicle controls and test compound are calculated and evaluated for significant differences by Students' t-test for unpaired data. Tissues exposed to test compounds were retested for responsiveness to LTE4, LTD4 or LTC4 following a 25 minute washout period. If tissue responsiveness was equal to responsiveness preceding exposure to the test compound additional studies were conducted. If responsiveness was not restored by the washing procedure, the tissues were discarded. The cyclooxygenase inhibitor, indomethacin, is present at 5×10^-6 M in all the determinations.
In general, compounds of formula I produce a significant increase in the time of onset of leukotriene initiated breathing changes following either oral, intravenous or intra peritoneal administration at a dose of 100 mg./kg., or much less, without any indication of untoward side-effects at several multiples of the minimum effective dose. By way of example, the compounds described in Examples 262, 158 and 168 produced significant increases in time required for onset of leukotriene D4 initiated disponoea following oral dosing at about 5 mg./kg., 43 mg./kg. and 50 mg./kg., respectively, 1-2 hours prior to leukotriene challenge.

SMILES | leukotriene antagonist properties
COc1cc(C(=O)O)ccc1Cn1ccc2ccc(NC(=O)CC3CCCC3)cc21 [Example 114] | potent leukotriene antagonist properties
COc1cc(C(=O)O)ccc1Cn1ccc2ccc(NC(=O)OC3CCC3)cc21 [Example 122] | potent leukotriene antagonist properties
CCCCOC(=O)Nc1ccc2ccn(Cc3ccc(-c4nnn[nH]4)cc3OC)c2c1 [Example 157, 6-(butoxycarbonyl)amino-1-(2-methoxy-4-[1(H)-tetrazol-5-yl]benzyl)indole] | potent leukotriene antagonist properties
COc1cc(-c2nnn[nH]2)ccc1Cn1ccc2ccc(NC(=O)OC3CCCC3)cc21 [Example 158, 6-(cyclopentyloxycarbonyl)amino-1-(2-methoxy-4-[1(H)tetrazol-5-yl]benzyl)indole] | potent leukotriene antagonist properties
CCCCOC(=O)Nc1ccc2cnn(Cc3ccc(-c4nnn[nH]4)cc3OC)c2c1 [Example 161, 6-(butyloxycarbonyl)amino-1-(2-methoxy-4-[1(H)-tetrazol-5-yl]benzyl)indazole] | potent leukotriene antagonist properties
COc1cc(-c2nnn[nH]2)ccc1Cn1ncc2ccc(NC(=O)OC3CCCC3)cc21 [Example 162, 6-(cyclopentyloxycarbonyl)amino-1-(2-methoxy-4-[1(H)-tetrazole-5-yl]benzyl)indazole] | potent leukotriene antagonist properties
CCCCC(CC)C(=O)Nc1ccc2cnn(Cc3ccc(-c4nnn[nH]4)cc3OC)c2c1 (stereo not drawn) [Example 163, 6-(2-ethylhexanamido)-1-(2-methoxy-4-[2(H)-tetrazol-5-yl]benzyl)indazole] | potent leukotriene antagonist properties
COc1cc(C(=O)O)ccc1Cn1ncc2ccc(NC(=O)OC3CCCC3)cc21 [Example 170] | potent leukotriene antagonist properties
COc1cc(C(=O)O)ccc1Cn1ccc2ccc(NC(=O)OC3CCCC3)cc21 [Example 176, 4-[6-(cyclopentyloxycarbonyl)aminoindol-1-ylmethyl]-3-methoxybenzoic acid] | potent leukotriene antagonist properties
COc1cc(C(=O)O)ccc1Cn1ccc2ccc(NC(=O)CC3CCCCC3)cc21 [Example 209] | potent leukotriene antagonist properties
COc1cc(C(=O)O)ccc1Cn1cc(Cl)c2ccc(NC(=O)OC3CCCC3)cc21 [Example 221] | potent leukotriene antagonist properties
COc1cc(C(=O)O)ccc1Cn1cc(C(C)=O)c2ccc(NC(=O)OC3CCCC3)cc21 [Example 222] | potent leukotriene antagonist properties
COc1cc(C(=O)O)ccc1Cn1cc(Cl)c2ccc(NC(=O)CC3CCCC3)cc21 [Example 224] | potent leukotriene antagonist properties
CCCCC(CC)C(=O)Nc1ccc2c(C=CC(=O)OC)cn(Cc3ccc(C(=O)O)cc3OC)c2c1 (stereo not drawn) [Example 241, 4-(3-[2-methoxycarbonylvinyl]-6-[2-ethylhexanamido]indol-1-ylmethyl)-3-methoxybenzoic acid] | potent leukotriene antagonist properties
COc1cc(C(=O)NS(=O)(=O)c2ccccc2)ccc1Cn1ccc2ccc(NC(=O)OC3CCCC3)cc21 [Example 256, N-(4-[6-(cyclopentyloxycarbonyl)-aminoindol-1-ylmethyl]-3-methoxybenzoyl)benzenesulphonamide] | potent leukotriene antagonist properties
CCC(C(=O)Nc1ccc2cnn(Cc3ccc(C(=O)NS(=O)(=O)c4ccccc4)cc3OC)c2c1)c1ccccc1 (stereo not drawn) [Example 261, N-(4-[6-(2-phenylbutanamido)indazol-1-ylmethyl]-3-methoxybenzoyl)benzenesulphonamide] | potent leukotriene antagonist properties
COc1cc(C(=O)NS(=O)(=O)c2ccccc2)ccc1Cn1ncc2ccc(NC(=O)OC3CCCC3)cc21 [Example 262] | potent leukotriene antagonist properties
COc1cc(C(=O)NS(=O)(=O)c2ccccc2)ccc1Cn1ncc2ccc(NC(=O)CC3CCCC3)cc21 [Example 263, N-(4-[6-(2-cyclopentylacetamido)indazol-1-ylmethyl]-3-methoxybenzoyl)benzenesulphonamide] | potent leukotriene antagonist properties
COc1cc(C(=O)NS(=O)(=O)c2ccccc2C)ccc1Cn1ncc2ccc(NC(=O)CC3CCCC3)cc21 [Example 264] | potent leukotriene antagonist properties
COc1cc(C(=O)NS(=O)(=O)c2ccccc2C)ccc1Cn1ccc2ccc(NC(=O)CC3CCCC3)cc21 [Example 265] | potent leukotriene antagonist properties
COc1cc(C(=O)NS(=O)(=O)c2ccccc2N)ccc1Cn1ccc2ccc(NC(=O)CC3CCCC3)cc21 [Example 266] | potent leukotriene antagonist properties
COc1cc(C(=O)NS(=O)(=O)c2ccccc2)ccc1Cn1cc(C(C)=O)c2ccc(NC(=O)OC3CCCC3)cc21 [Example 277, N-(4-[3-acetyl-6-(cyclopentyloxycarbonyl)aminoindol-1-ylmethyl]-3-methoxybenzoyl)benzenesulphonamide] | potent leukotriene antagonist properties
COc1cc(C(=O)NS(=O)(=O)c2ccccc2)ccc1Cn1ccc2ccc(NC(=O)C3CCCC3)cc21 [Example 278] | potent leukotriene antagonist properties
COc1cc(C(=O)NS(=O)(=O)c2ccccc2)ccc1Cn1cc(Cl)c2ccc(NC(=O)OC3CCCC3)cc21 [Example 279] | potent leukotriene antagonist properties
COc1cc(C(=O)NS(=O)(=O)c2ccccc2)ccc1Cn1ccc2ccc(NC(=O)CC3CCCC3)cc21 [Example 280, N-(4-[6-(2-cyclopentylacetamido)indol-1-ylmethyl]-3-methoxybenzoyl)benzenesulphonamide] | potent leukotriene antagonist properties
COc1cc(C(=O)NS(=O)(=O)c2ccccc2)ccc1CN1CCc2ccc(NC(=O)CC3CCCC3)cc21 [Example 284, N-(4-[6-(2-cyclopentylacetamido)indolin-1-ylmethyl]-3-methoxybenzoyl)benzenesulphonamide] | potent leukotriene antagonist properties
CCCCOC(=O)Nc1ccc2cnn(Cc3ccc(C(=O)NS(=O)(=O)c4ccccc4)cc3OC)c2c1 [Example 294] | potent leukotriene antagonist properties
